Experimental data published in patent US8921356B2, “Compositions comprising nicotinic agonists and methods of using same” (priority 2007, dated 2014).

Legend:
rats [1] = experiment: Nicotine-induced hypothermia in rats; type: in vivo, rat
Method: (§1) (ii) Animals—Young adult (240 g-290 g) male Sprague-Dawley rats (Charles River, USA or Harlan, Israel) were used in the experiments.
(iv) Determination of nicotine-induced hypothermia—Rats were placed individually in experimental cages kept at 25° C. and were allowed to rest for 1 h before drug injection. During this period, body temperature was measured at 15- or 30-min intervals in order to exclude the effect of handling on animal temperature. Body temperature was measured with a rectal thermistor probe (M.R.C, Israel, sensitivity 0.1° C.). The probe was lubricated with petroleum before being inserted into the rectum to a depth of 2 cm. The data are presented as changes in rectal temperature from the basal values. Basal values are those taken immediately before the drug injection (time 0).
Rats were divided into three treatment groups, each of 5 rats, as follows: 1. treatment with nicotine (2 mg/kg); 2. treatment with opipramol (20 mg/kg); 3. treatment with opipramol (20 mg/kg) together with nicotine (2 mg/kg). Rats were injected with nicotine twice on the first day (FIG. 3A, D-1, left panel) and three times on days 2 (FIG. 3A, D-2, middle panel) and 3 (FIG. 3A, D-3, right panel). […] Nicotine was injected with and without opipramol, and body temperature was measured at 30 min intervals. […] FIG. 3A: Each point is the Mean±S.E.M. of change in body temperature compared to the temperature measured at time 0 (before the first injection) for at least five rats. FIG. 3B depicts a bar histogram representing mean±S.E.M. of the maximum change in body temperature compared to the temperature measured just before the injection.
The body temperature (0 C) was measured 30 min post injection. FIG. 7 depicts the maximum decrease in body temperature after each injection.
Nicotine (2 mg/kg), lidocaine (15 mg/kg), and nicotine+lidocaine (2 mg/kg+15 mg/kg) were administered to rats 2× day for two days, following the above protocol.

[2] = system: smooth muscle of a guinea pig ileum; experiment: Nicotine-induced smooth muscle contraction in the guinea pig ileum preparation
Method: The free end of a smooth muscle of a guinea pig ileum was attached to a force displacement transducer. Isometric tension of the smooth muscle was continuously monitored by outputting the preamplified transducer signal to a computer.
The ileum preparation was washed by physiological solution 10 min after the addition of nicotine and then nicotine at a final concentration of 25 μM was added again to the muscle preparation for additional 10 min (2nd stimulation; bar 3).

nAChR = experiment: Nicotine-induced 45Ca2+ uptake (calcium influx) in SK-N-SH human neuroblastoma cells; type: cell-based
Method: (i) Cells—SK-N-SH human neuroblastoma cell line was obtained from the American Type Culture Collection (ATTC).
SK-N-SH human neuroblastoma cells, known to express nAChR, were grown in Dulbecco/Vogt Modified Eagle's Minimal Essential Medium (DMEM) to confluency in a 24-well plate. DMEM containing 45Ca^2+ without any other addition (1) or with 50 μM nicotine (2) or with 50 μM nicotine+10 μM opipramol (3) was added to cells grown in 24-well plates and preincubated with medium alone for 15 minutes, then washed rapidly. Intra cellular radioactivity was determined for each condition. The same medium with nicotine was added also to cells that were preincubated for 15 minutes with either 50 μM nicotine alone (4) or with 50 μM nicotine+10 μM opipramol (5). 45Ca2+ uptake was determined after 10 min. Activation of the nicotinic receptors causes calcium influx so it is a measure of the nicotinic receptor activity.

BDNF mRNA = BDNF mRNA expression in rat cerebral cortex; type: in vivo
Method: Nicotine alone (0.5 mg/kg) or opipramol (10 mg/kg) or nicotine (0.5 mg/kg)+opipramol (10 mg/kg) were injected intraperitoneally (ip) to rats (5 per group) at intervals of 2 hours during a single day. The drugs were dissolved in saline and used in the same day. […] Animals were sacrificed 90 min after each injection and brain derived neurotrophic factor (BDNF) and β-actin mRNA were determined in homogenates of the cerebral cortex of each animal.
Homogenates of the cerebral cortex were prepared as follows: Rat brain tissues were sonicated for 15 sec and total RNA was obtained using the Trizol Reagent (Molecular Research Center, Cincinnati, Ohio, USA), according to the manufacturer's instructions. RNA concentrations were quantified by measuring the absorbances at 260 and 280 nm. RNA was reverse transcribed into cDNA during 45 min at 42° c. The cDNA products were diluted 1:40 for BDNF and 1:1000 for β-actin (a housekeeping gene for internal standard). In order to amplify gene specific sequences, PCR techniques were applied using ReadyMix PCR Master Mix (AB-genes, Surrey, UK) and specific primer sequences for BDNF and beta actin. The products were separated by electrophoresis on agarose and quantification of the bands was done by an image analyzer.

rats [3] = experiment: Elevated plus maze (EPM) anxiety test in rats; type: in vivo, rat
Description: as §1
(v) Elevated […] Maze (EPM)—The purpose of the EPM is to determine the anxiolytic effects of tested drugs. The time that the experimental animals spend in the open arm of the maze is an indication for the anxiolytic effect, the longer the time the higher the anxiolytic effect. The EPM is a wooden, cross-shaped device, consisting of four arms arranged in the shape of a plus sign. Two of the arms have no side or end walls (open-arms; 30×5×0.25 cm). The other two arms have side walls and end walls, but are open on top (closed arms; 30×5×15 cm). The maze is elevated to a height of 50 cm. The animals are kept in a relatively dark box before exposure to the maze in order to increase their exploratory behavior. The tests were done in a silent environment under dim light. The animals were carried to the laboratory and left there undisturbed for 1 h before the experiment.
This test is used to assess anxiety. Rats were randomly assigned into five groups each containing 5 animals and then tested in an Elevated Plus Maze (EPM). In the first (control) group, rats were injected with saline once a day; in the second group rats were injected with nicotine (0.5 mg/kg or 2 mg/kg) three times a day and were tested in the maze after the third injection; in the third group rats were injected with opipramol (10 mg/kg) three times a day and then were tested in the maze; in the fourth group, rats were injected with opipramol (10 mg/kg) or galantamine (5 mg/kg), and nicotine (2 mg/kg or 0.5 mg/kg) three times a day and were tested in the maze after the last injection. The behavioral response to nicotine in the EPM was assessed 30 min after the first injection, and then again 30 minutes after the third injection.

For `CCN(CC)CC(=O)Nc1c(C)cccc1C` [lidocaine], the “hypothermic effect of nicotine” value (rats [1]; lidocaine 15 mg/kg + nicotine 2 mg/kg, 2x day for two days) was “maintained the hypothermic effect of nicotine”.

For `CN1CCC[C@H]1c1cccnc1` [nicotine, S-3-(1-methyl-2-pyrrolidinyl)pyridine], the muscle contraction ([2]; 1st stimulation, 25 μM nicotine alone) was “caused muscle contraction”, the muscle contraction ([2]; 2nd stimulation with 25 μM nicotine after 1st stimulation with nicotine alone) was “did not induce muscle contraction” and the “calcium influx (45Ca2+ uptake)” value (nAChR; first exposure to 50 μM nicotine, compared to basal uptake, SK-N-SH cells) was “caused an increase in calcium influx”. For the same molecule, the “calcium influx (45Ca2+ uptake)” value (nAChR; second exposure to 50 μM nicotine after 15 min preincubation with nicotine alone) was “considerably reduced”, the hypothermic effect (rats [1]; nicotine 2 mg/kg alone, 2x day for two days) was “loss of the hypothermic effect” and the “hypothermic effect (maximum decrease in body temperature)” value (rats [1]; nicotine 2 mg/kg alone, 3 injections 2 h apart) was “gradual decrease in the hypothermic effect”. The “magnitude of the decrease in body temperature” value (rats [1]; nicotine 2 mg/kg repeatedly injected for three consecutive days, P<0.05) was “became progressively smaller”, the “BDNF mRNA level (ratio to β-actin)” value (BDNF mRNA; nicotine 0.5 mg/kg ip alone, repeated (third) injection) was “much smaller rise” and the “BDNF mRNA level (ratio to β-actin)” value (BDNF mRNA; nicotine 0.5 mg/kg ip, first injection) was “increased”. The “anxiolytic effect (time in open arm)” value (rats [3]; nicotine alone, 0.5 mg/kg and 2 mg/kg, second injection) was “did not induce an anxiolytic effect” and the “time spent in the open arm (anxiolytic effect)” value (rats [3]; one injection of nicotine) was “significantly increased”.

With `CN(C)CCCN1c2ccccc2CCc2ccc(Cl)cc21` [clomipramine] the “hypothermic effect of nicotine” value (rats [1]; clomipramine 30 mg/kg with nicotine 2 mg/kg, consecutive injections 2 h apart) was “no further reduction in the hypothermic effect” and the “hypothermic effect of nicotine” value (rats [1]; clomipramine 30 mg/kg with nicotine 2 mg/kg, first injection) was “inhibited to some extent the effect of nicotine”.

`OCCN1CCN(CCCN2c3ccccc3C=Cc3ccccc32)CC1` [opipramol] was tested, and the “effect of nicotine (muscle contraction) relative to that induced by nicotine alone” value ([2]; 1st stimulation, 25 μM nicotine in the presence of 10 μM opipramol) was “about 50%”, the “muscle contraction response to nicotine” value ([2]; 2nd stimulation with 25 μM nicotine after 1st stimulation in the presence of opipramol) was “almost full response” and the “duration of the effect of nicotine (muscle contraction)” value ([2]; nicotine administered together with opipramol, until removal by washing, data not shown) was “maintained steady for one hour”. The “calcium uptake (45Ca2+)” value (nAChR; first stimulation with 50 μM nicotine in the presence of 10 μM opipramol, compared to nicotine alone) was “only slightly smaller”, the “nAChR desensitization (45Ca2+ uptake at second nicotine stimulation)” value (nAChR; second stimulation with 50 μM nicotine after 15 min preincubation with 50 μM nicotine + 10 μM test drug) was “remarkedly reduced” and the “change in body temperature” value (rats [1]; opipramol 20 mg/kg alone) was “only a slight decrease in body temperature”. For the same molecule, the “magnitude of the reduction in body temperature” value (rats [1]; opipramol 20 mg/kg together with nicotine 2 mg/kg, second and third day, after second and third injections, P<0.001) was “significantly larger than that induced by nicotine alone”, the “BDNF mRNA level (ratio to β-actin)” value (BDNF mRNA; nicotine 0.5 mg/kg + opipramol 10 mg/kg ip, third injection) was “rising even above that which was observed with nicotine alone” and the “BDNF mRNA level (ratio to β-actin)” value (BDNF mRNA; opipramol 10 mg/kg ip alone, third injection) was “no effect”. For the same molecule, the “anxiolytic effect (time in open arm)” value (rats [3]; nicotine 0.5 mg/kg together with opipramol 10 mg/kg or galantamine 5 mg/kg, second injection) was “the anxiolytic effect was seen in the second injection” and the “anxiolytic effect (time in open arm)” value (rats [3]; nicotine 2 mg/kg together with opipramol 10 mg/kg or galantamine 5 mg/kg) was “inhibited desensitization”.
